From ChEMBL document CHEMBL5729509, “Compounds and compositions for the treatment of neurodegenerative and inflammatory diseases” (2023)

Tests used:
[1] = molecular target: T1, Kallikrein-6 (Homo sapiens, UniProt Q92876); assay: Activities on KLK6 (Boc-QAR-AMC): In a typical test, 100 μl of reaction medium contains the buffer, 1 μl of recombinant enzyme, 1 μl of substrate (Boc-QAR-AMC) and 1 μl of the compound tested at 10 μM (in the control, 1 μl of DMSO). In each well, the inhibitor is deposited in the presence of the enzyme-buffer mixture for preincubation for 15 minutes at 37° C. The enzymatic reaction is then …
Description: Activities on KLK6 (Boc-QAR-AMC): In a typical test, 100 μl of reaction medium contains the buffer, 1 μl of recombinant enzyme, 1 μl of substrate (Boc-QAR-AMC) and 1 μl of the compound tested at 10 μM (in the control, 1 μl of DMSO). In each well, the inhibitor is deposited in the presence of the enzyme-buffer mixture for preincubation for 15 minutes at 37° C. The enzymatic reaction is then triggered by adding the buffer-substrate mixture (100 μM). The release of the 7-amino-4-methylcoumarin fluorescent group (AMC, λex=360 nm, λem=460 nm) following the hydrolysis of the substrate catalyzed by the enzyme is monitored for 30 minutes at 37° C. using a FLUOstar spectrofluorimeter.

[2] = molecular target: T1, Kallikrein-6; assay: Activities on KLK6 (MBP3): In a typical test, 100 μl of reaction medium contains the buffer, 1 μl of recombinant enzyme, 1 μl of substrate (MBP3) and 1 μl of the compound tested at 10 μM (in the control, 1 μl of DMSO). In each well, the inhibitor is deposited in the presence of the enzyme-buffer mixture for preincubation for 15 minutes at 37° C. The enzymatic reaction is then triggered by adding …
Description: Activities on KLK6 (MBP3): In a typical test, 100 μl of reaction medium contains the buffer, 1 μl of recombinant enzyme, 1 μl of substrate (MBP3) and 1 μl of the compound tested at 10 μM (in the control, 1 μl of DMSO). In each well, the inhibitor is deposited in the presence of the enzyme-buffer mixture for preincubation for 15 minutes at 37° C. The enzymatic reaction is then triggered by adding the buffer-substrate mixture (100 μM). The release of the 7-amino-4-methylcoumarin fluorescent group (AMC, λex=360 nm, λem=460 nm) following the hydrolysis of the substrate catalyzed by the enzyme is monitored for 30 minutes at 37° C. using a FLUOstar spectrofluorimeter.

[3] = molecular target: T1, Kallikrein-6; assay: Activities on KLK6 (PAR2): In a typical test, 100 μl of reaction medium contains the buffer, 1 μl of recombinant enzyme, 1 μl of substrate (PAR2) and 1 μl of the compound tested at 10 μM (in the control, 1 μl of DMSO). In each well, the inhibitor is deposited in the presence of the enzyme-buffer mixture for preincubation for 15 minutes at 37° C. The enzymatic reaction is then triggered by adding …
Description: Activities on KLK6 (PAR2): In a typical test, 100 μl of reaction medium contains the buffer, 1 μl of recombinant enzyme, 1 μl of substrate (PAR2) and 1 μl of the compound tested at 10 μM (in the control, 1 μl of DMSO). In each well, the inhibitor is deposited in the presence of the enzyme-buffer mixture for preincubation for 15 minutes at 37° C. The enzymatic reaction is then triggered by adding the buffer-substrate mixture (100 μM). The release of the 7-amino-4-methylcoumarin fluorescent group (AMC, λex=360 nm, λem=460 nm) following the hydrolysis of the substrate catalyzed by the enzyme is monitored for 30 minutes at 37° C. using a FLUOstar spectrofluorimeter.

[4] = molecular target: Kallikrein-1 (Homo sapiens, UniProt P06870); assay: Inhibitory Effect on the Enzymatic Activity of KLK: Table 4: The molecules were tested in order to evaluate their possible inhibitory effect on the enzymatic activity of KLK1. The % inhibitions were determined from the residual activity of the hydrolysis of the Boc-PFR-AMC fluorogenic substrate (100 μM) by KLK1 (1.6 nM) after 15 minutes of incubation at 37° C. with each molecule at 10 μM.
[5] = molecular target: T2, Plasminogen (Homo sapiens, UniProt P00747); assay: Activities on Plasmin (Boc-QAR-AMC): In a typical test, 100 μl of reaction medium contains the buffer, 1 μl of recombinant enzyme, 1 μl of substrate (Boc-QAR-AMC) and 1 μl of the compound tested at 10 μM (in the control, 1 μl of DMSO). In each well, the inhibitor is deposited in the presence of the enzyme-buffer mixture for preincubation for 15 minutes at 37° C. The enzymatic reaction is then …
Description: Activities on Plasmin (Boc-QAR-AMC): In a typical test, 100 μl of reaction medium contains the buffer, 1 μl of recombinant enzyme, 1 μl of substrate (Boc-QAR-AMC) and 1 μl of the compound tested at 10 μM (in the control, 1 μl of DMSO). In each well, the inhibitor is deposited in the presence of the enzyme-buffer mixture for preincubation for 15 minutes at 37° C. The enzymatic reaction is then triggered by adding the buffer-substrate mixture (100 μM). The release of the 7-amino-4-methylcoumarin fluorescent group (AMC, λex=360 nm, λem=460 nm) following the hydrolysis of the substrate catalyzed by the enzyme is monitored for 30 minutes at 37° C. using a FLUOstar spectrofluorimeter.

[6] = molecular target: T2, Plasminogen; assay: Activities on Plasmin (PAR4): In a typical test, 100 μl of reaction medium contains the buffer, 1 μl of recombinant enzyme, 1 μl of substrate (PAR4) and 1 μl of the compound tested at 10 μM (in the control, 1 μl of DMSO). In each well, the inhibitor is deposited in the presence of the enzyme-buffer mixture for preincubation for 15 minutes at 37° C. The enzymatic reaction is then triggered by …
Description: Activities on Plasmin (PAR4): In a typical test, 100 μl of reaction medium contains the buffer, 1 μl of recombinant enzyme, 1 μl of substrate (PAR4) and 1 μl of the compound tested at 10 μM (in the control, 1 μl of DMSO). In each well, the inhibitor is deposited in the presence of the enzyme-buffer mixture for preincubation for 15 minutes at 37° C. The enzymatic reaction is then triggered by adding the buffer-substrate mixture (100 μM). The release of the 7-amino-4-methylcoumarin fluorescent group (AMC, λex=360 nm, λem=460 nm) following the hydrolysis of the substrate catalyzed by the enzyme is monitored for 30 minutes at 37° C. using a FLUOstar spectrofluorimeter.

T2 sequence (P00747 97-580 limits assumed): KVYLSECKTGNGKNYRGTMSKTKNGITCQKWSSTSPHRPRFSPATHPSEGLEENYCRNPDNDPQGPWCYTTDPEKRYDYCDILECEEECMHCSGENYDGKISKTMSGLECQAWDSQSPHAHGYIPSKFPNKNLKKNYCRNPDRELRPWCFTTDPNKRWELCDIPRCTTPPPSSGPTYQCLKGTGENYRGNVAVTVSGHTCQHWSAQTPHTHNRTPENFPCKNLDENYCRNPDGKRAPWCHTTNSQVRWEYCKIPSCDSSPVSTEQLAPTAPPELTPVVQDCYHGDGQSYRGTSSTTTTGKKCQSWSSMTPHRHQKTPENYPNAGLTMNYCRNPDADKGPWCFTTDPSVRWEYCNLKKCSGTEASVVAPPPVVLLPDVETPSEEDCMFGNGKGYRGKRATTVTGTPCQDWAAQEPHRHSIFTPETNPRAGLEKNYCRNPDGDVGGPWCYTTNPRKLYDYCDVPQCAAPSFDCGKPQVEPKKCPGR
T2 sequence (P00747 581-810 limits assumed): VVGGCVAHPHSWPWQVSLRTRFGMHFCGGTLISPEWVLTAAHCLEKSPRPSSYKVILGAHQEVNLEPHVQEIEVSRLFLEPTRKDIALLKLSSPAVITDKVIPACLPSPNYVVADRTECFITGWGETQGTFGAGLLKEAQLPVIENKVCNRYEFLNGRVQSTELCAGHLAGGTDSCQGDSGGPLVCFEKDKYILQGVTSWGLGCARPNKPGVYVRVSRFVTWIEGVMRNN
Sequence of Kallikrein-1 (P06870 whole entry): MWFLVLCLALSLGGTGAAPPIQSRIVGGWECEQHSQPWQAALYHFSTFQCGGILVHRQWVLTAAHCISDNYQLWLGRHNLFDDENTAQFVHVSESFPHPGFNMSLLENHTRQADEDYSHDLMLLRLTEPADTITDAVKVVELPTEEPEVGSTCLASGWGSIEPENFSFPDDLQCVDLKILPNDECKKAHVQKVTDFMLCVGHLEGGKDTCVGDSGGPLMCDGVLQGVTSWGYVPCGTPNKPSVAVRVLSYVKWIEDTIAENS

For `Cc1ccc(C(=O)Nc2ccc(CN)cc2)c(O)c1`, the IC50 [1] was 5420 nM, the Ki [1] was 1920 nM and the IC50 [2] was 8.34 µM. For the same compound, the IC50 [3] was 5.06 µM, the IC50 [4] was 39.3 µM and the IC50 [5] was 12.5 µM. The Ki [5] was 4660 nM.

`COc1ccc2c(O)c(C(=O)Nc3ccc(CN)cc3)ccc2c1` was tested, and the IC50 [4] was 30.7 µM, the IC50 [5] was 2.72 µM and the Ki [5] was 2160 nM.

`CC(C)c1ccc(C(=O)Nc2ccc(CN)cc2)c(O)c1` gave an IC50 [1] of 1560 nM, a Ki [1] of 1750 nM and a Ki [5] of 670 nM.

For `NCc1ccc(NC(=O)c2ccc3ccccc3c2O)cc1`, the IC50 [1] was 1500 nM, the Ki [1] was 2260 nM and the IC50 [2] was 7.89 µM. For the same compound, the IC50 [3] was 2.63 µM and the IC50 [6] was 4.92 µM.

With `NCc1ccc(NC(=O)c2cc3ccccc3cc2O)cc1` the IC50 [4] was 5.9 µM, the IC50 [5] was 3.75 µM and the IC50 [6] was 3.25 µM.
